Key:
[1] = 298.15 K; 101.33 kPa; Liquid; Pycnometric method
[2] = excess molar enthalpy (molar enthalpy of mixing); xn = mol fraction of the nth substance listed; details: 303.15 K, 101 kPa, Liquid, Flow calorimetry

CC(C)CC(C)(C)C [2,2,4-trimethylpentane]
Details | mass density [kg/m3]
[1] | 687.91

CC(C)CC(C)(C)C [2,2,4-trimethylpentane] + CCO
[2]
Details | excess molar enthalpy [kcal/mol]
x2 = 0.1291 | 0.13
x2 = 0.2383 | 0.152
x2 = 0.332 | 0.158
x2 = 0.4132 | 0.157
x2 = 0.4842 | 0.153
x2 = 0.5469 | 0.146
x2 = 0.6026 | 0.138
x2 = 0.6525 | 0.129
x2 = 0.6974 | 0.12
x2 = 0.738 | 0.11
x2 = 0.7749 | 0.1
x2 = 0.8086 | 0.0898
x2 = 0.8395 | 0.0797
x2 = 0.8679 | 0.069
x2 = 0.8942 | 0.0582
x2 = 0.9185 | 0.0473
x2 = 0.941 | 0.0357
x2 = 0.962 | 0.024
x2 = 0.9817 | 0.012

CCCCO [butan-1-ol]
Details | mass density [kg/m3]
[1] | 805.76

CCC(C)O (centres undefined) [butan-2-ol]
Details | mass density [kg/m3]
[1] | 802.57

CCO [ethanol]
Details | mass density [kg/m3]
[1] | 785.32

CCCO [propan-1-ol]
Details | mass density [kg/m3]
[1] | 799.94

CC(C)O [propan-2-ol]
Details | mass density [kg/m3]
[1] | 781.32

C=COCCC [propyl vinyl ether]
Details | mass density [kg/m3]
[1] | 762.96

C=COCCC [propyl vinyl ether] + CC(C)CC(C)(C)C
[2]
Details | excess molar enthalpy [kcal/mol]
x1 = 0.0715 | 0.0253
x1 = 0.1398 | 0.0464
x1 = 0.2052 | 0.0635
x1 = 0.2678 | 0.0775
x1 = 0.3278 | 0.0878
x1 = 0.3853 | 0.0954
x1 = 0.4406 | 0.1
x1 = 0.4937 | 0.103
x1 = 0.5448 | 0.103
x1 = 0.5939 | 0.101
x1 = 0.6413 | 0.097
x1 = 0.6869 | 0.0917
x1 = 0.7309 | 0.0846
x1 = 0.7734 | 0.0758
x1 = 0.8144 | 0.0658
x1 = 0.854 | 0.0547
x1 = 0.8923 | 0.0418
x1 = 0.9294 | 0.0277
x1 = 0.9653 | 0.0138

C=COCCC [propyl vinyl ether] + CCO
[2]
Details | excess molar enthalpy [kcal/mol]
x1 = 0.0265 | 0.014
x1 = 0.0543 | 0.0284
x1 = 0.0836 | 0.0441
x1 = 0.1145 | 0.0602
x1 = 0.147 | 0.0766
x1 = 0.1814 | 0.0936
x1 = 0.2178 | 0.111
x1 = 0.2564 | 0.129
x1 = 0.2973 | 0.146
x1 = 0.3409 | 0.164
x1 = 0.3873 | 0.179
x1 = 0.4368 | 0.195
x1 = 0.4899 | 0.209
x1 = 0.5468 | 0.221
x1 = 0.608 | 0.229
x1 = 0.6741 | 0.233
x1 = 0.7456 | 0.227
x1 = 0.8231 | 0.207
x1 = 0.9076 | 0.157
